# Assay results taken from PMC10895678 (Journal of Medicinal Chemistry, 2024).
# Several values for one entry are separate records, joined by “and”; a condition that tells them apart may be missing. Identical values can stand only once. Like-named read-outs stand apart in the source and are kept apart here.
# Assay: Mouse PK, combined (cassette) dosing of BGAz-001–005
# Type: in vivo, KM mice
# Parameters: AUMC(0-t) / VRT(0-t) / λz: unit not given here
# Conditions: for MRT last: read-out: MRT(0-t); for MRT inf: read-out: MRT(0-∞); for Vd/F: read-out: Vz/F
# Description: Methods for combined single dosing (BGAz001–005) and dosing of single compounds multiple times (BGAz004 and BGAz005) are described in detail in the Supporting Information (PK Data).
# Report on PK Results of Combined Dosing with BGAz-001–005
# 1 Materials and instrument combined dosing
# An MS2 Turnover type oscillator was purchased from IKA Work’s Guangzhou (China), and a 5415R ChromatographicanalyseswereconductedusinganAgilent1290InfinityIIhighperformanceliquidchromatography andAgilentTechnologies6470TripleQuadLC/MS.Propranolol(≥90%inpurity,internalstandard,IS)waspurchased fromtheSigmaChemicalCo.(China).Formicacid(HPLCgrade)andmethanol(HPLCgrade)werepurchasedfrom DIKMACo.(China).Allchemicalsandsolventswereanalyticalgrade.WaterwaspurifiedusingaMillipore(AK,USA) laboratoryultra-purewatersystem(0.2μmfilter).
# KMmice,weighing25–35g(BeijingVitalRiverLaboratoryAnimalTechnologyCo.,Ltd.,China)wereutilisedforthe studies.The protocols were approved by the Animal Care and Use Committee, GIBH. Animals were maintained on standard animal chow and waterad libitum, in a climate-controlled room (23±1 °C 30–70% relative humidity, a minimumof tenexchangesof roomairperhouranda12hlight/darkcycle)foroneweekpriortoexperiments.
# 3 Pharmacokinetic studies
# Compounds BGAz-001 ，BGAz-002 ，BGAz-003 ，BGAz-004 and BGAz-005 were dissolved mixed in a solution containing DMSO (2%),ethanol (4%), Cremophor EL (4%) and ddH2O (90%); Pharmacokinetic propertiesof KM (male) were determined following IV, PO and IP administration. Animals were randomly distributed into three experimentalgroups(n=4).ThePOgroupwasgivenmixedsolutionwith5mg/kgbygastricgavage.TheIVgroup was dosed with mixed solution 1mg/kg byinjection into the tail vein. The IP group was dosed with mixed solution 1mg/kg by intraperitoneal injection. After single administration, whole blood samples (100 μL) were obtained from the orbital venousplexus atthe followingtime pointsafter dosing:5, 15,30 minand 1,3, 5,8, 24hour (PO and IP groups) and at the following time points after dosing 2, 10, 30min and 1, 3, 5, 8,24 hour (IV group). Wholeblood samples were collected in heparinised tubes. The plasma fraction was immediately separated by centrifugation. The micewerehumanelyeuthanasiabycarbondioxide24hoursafterexperimentwithoutpain.
# 4 Plasma sample and brain sample analysis
# 4.1 Standard curve sample preparation
# ThecompoundsweredissolvedinDMSO(2mg/mL)anddilutedwithtoseriesconcentration(methanol:H 2O,1:1,10 μL) and blank plasma (50 μL) were added to 1.5 mL tubes and vortexed for 3 min, then acetonitrile-containing internalstandard(150μL)wasaddedandvortexedforafurther5min,andsubsequentlyspuninacentrifugeat13000 […]
# 4.2 Plasma and preparation
# Plasmasampleswerepreparedusingaproteinprecipitationmethod.Solution(10μL,methanolH 2O,1:1)andplasma samples(50μL)wereaddedto1.5mLtubesandvortexfor3min,thenacetonitrile-containinginternalstandard(150 μL)wasaddedandvortexfor5min,andsubsequentlyspuninacentrifugeat13000× gfor40minat4°C.
# Aftercentrifugation,supernatant(100μL)wastransferto96wellplatesandanalysedbyLC-MS/MSusinganAgilent 1290InfinityIIHPLCandanAgilentTechnologies6470TripleQuadLC/MS.
# [1] = IP 1 mg/kg, cassette, mean of animals
# [2] = IV 1 mg/kg, cassette, mean of animals
# [3] = PO 5 mg/kg, cassette, mean of animals
# [4] = male, KM, mouse, plasma, IP 1 mg/kg, cassette
# [5] = male, KM, mouse, plasma, IP 1 mg/kg, cassette, mean of animals
# [6] = male, KM, mouse, plasma, IV 1 mg/kg, cassette
# [7] = male, KM, mouse, plasma, IV 1 mg/kg, cassette, mean of animals
# [8] = male, KM, mouse, plasma, PO 5 mg/kg, cassette
# [9] = male, KM, mouse, plasma, PO 5 mg/kg, cassette, mean of animals
smiles,measurement,setting,value
FC(F)(F)Oc1ccc(C2CC(CN3CCCC3)N2Cc2ccccc2OC(F)(F)F)cc1 (stereo not drawn) [BGAz-002],AUC(0-t),[1],390.877 µg
same,AUC(0-∞),[1],629.982 µg
same,AUMC(0-t),[1],3917.162 **μg
same,AUMC(0-∞),[1],17064.651 **μg
same,CLz/F,[1],1.79 L/kg
same,C_last,[1],8.556 µg
same,R_AUC(t/∞),[1],67.725%
same,VRT(0-t),[1],72.869 ^2
same,VRT(0-∞),[1],649.236 ^2
same,λz,[1],0.051 1/
same,AUC(0-∞),"IP 1 mg/kg, cassette, summary table",629.982 µg·h
same,AUC(0-t),[2],395.775 µg
same,AUC(0-∞),[2],440.39 µg
same,AUMC(0-t),[2],2604.325 **μg
same,AUMC(0-∞),[2],4336.305 **μg
same,CLz/F,[2],2.306 L/kg
same,C_last,[2],3.185 µg
same,R_AUC(t/∞),[2],89.5%
same,VRT(0-t),[2],48.868 ^2
same,VRT(0-∞),[2],164.25 ^2
same,Vz/F,[2],28.224 L/kg
same,λz,[2],0.099 1/
same,AUC(0-∞),"IV 1 mg/kg, cassette, summary table",440.39 µg·h
same,BA,"PO 5 mg/kg vs IV 1 mg/kg, cassette",57.59%
same,AUC(0-t),[3],642.368 µg
same,AUC(0-∞),[3],1268.031 µg
same,AUMC(0-t),[3],6099.109 **μg
same,AUMC(0-∞),[3],48726.538 **μg
same,CLz/F,[3],11.484 L/kg
same,C_last,[3],17.369 µg
same,R_AUC(t/∞),[3],64%
same,VRT(0-t),[3],48.138 ^2
same,VRT(0-∞),[3],1193.792 ^2
same,λz,[3],0.025 1/
same,AUC(0-∞),"PO 5 mg/kg, cassette, summary table",1268.03 µg·h
same,Cmax,"male, KM, mouse, plasma, ip, 1 mg/kg, IP 1 mg/kg, cassette, mean of animals, read-out: Cmax",40 ng/mL
same,Tmax,"male, KM, mouse, plasma, ip, 1 mg/kg, IP 1 mg/kg, cassette, mean of animals, read-out: Tmax",0.167 h
same,Cmax,"male, KM, mouse, plasma, ip, 1 mg/kg, IP 1 mg/kg, cassette, summary table, read-out: Cmax",40 ng/mL
same,half-life,"male, KM, mouse, plasma, ip, 1 mg/kg, IP 1 mg/kg, cassette, summary table, read-out: T1/2 (converted)",16.1 h
same,Tmax,"male, KM, mouse, plasma, ip, 1 mg/kg, IP 1 mg/kg, cassette, summary table, read-out: Tmax",0.167 h
same,Cmax,"male, KM, mouse, plasma, iv, 1 mg/kg, IV 1 mg/kg, cassette, mean of animals, read-out: Cmax",189 ng/mL
same,Tmax,"male, KM, mouse, plasma, iv, 1 mg/kg, IV 1 mg/kg, cassette, mean of animals, read-out: Tmax",0.033 h
same,Cmax,"male, KM, mouse, plasma, iv, 1 mg/kg, IV 1 mg/kg, cassette, summary table, read-out: Cmax",189 ng/mL
same,half-life,"male, KM, mouse, plasma, iv, 1 mg/kg, IV 1 mg/kg, cassette, summary table, read-out: T1/2 (converted)",8.35 h
same,Tmax,"male, KM, mouse, plasma, iv, 1 mg/kg, IV 1 mg/kg, cassette, summary table, read-out: Tmax",0.033 h
same,AUC(0-inf),"male, KM, mouse, plasma, po, 5 mg/kg, 5 mg/kg PO, cassette dosing, read-out: AUC0-inf",1270 ng·h/mL
same,Cmax,"male, KM, mouse, plasma, po, 5 mg/kg, 5 mg/kg PO, cassette dosing, read-out: Cmax (Mouse, P.O.)",53.9 ng/mL
same,half-life,"male, KM, mouse, plasma, po, 5 mg/kg, 5 mg/kg PO, cassette dosing, read-out: T1/2 (Mouse, P.O.) (converted)",24.9 h
same,Tmax,"male, KM, mouse, plasma, po, 5 mg/kg, 5 mg/kg PO, cassette dosing, read-out: Tmax (Mouse, P.O.)",1.87 h
same,Cmax,"male, KM, mouse, plasma, po, 5 mg/kg, PO 5 mg/kg, cassette, mean of animals, read-out: Cmax",53.9 ng/mL
same,Tmax,"male, KM, mouse, plasma, po, 5 mg/kg, PO 5 mg/kg, cassette, mean of animals, read-out: Tmax",1.88 h
same,Cmax,"male, KM, mouse, plasma, po, 5 mg/kg, PO 5 mg/kg, cassette, summary table, read-out: Cmax",53.9 ng/mL
same,half-life,"male, KM, mouse, plasma, po, 5 mg/kg, PO 5 mg/kg, cassette, summary table, read-out: T1/2 (converted)",24.9 h
same,Tmax,"male, KM, mouse, plasma, po, 5 mg/kg, PO 5 mg/kg, cassette, summary table, read-out: Tmax",1.88 h
same,concentration at 0.083 h,[4],37.4 ng/mL and 80 nM
same,concentration at 0.25 h,[4],80 nM and 38.8 ng/mL
same,concentration at 0.5 h,[4],70 nM and 32.6 ng/mL
same,concentration at 1 h,[4],50 nM and 25.8 ng/mL
same,concentration at 3 h,[4],50 nM and 24 ng/mL
same,concentration at 5 h,[4],40 nM and 17 ng/mL
same,concentration at 8 h,[4],30 nM and 15 ng/mL
same,concentration at 24 h,[4],30 nM and 12.4 ng/mL
same,MRT last,[5],10.1 h
same,MRT inf,[5],23.7 h
same,Vd/F,[5],36.8 L/kg
same,concentration at 0.033 h,"male, KM, mouse, plasma, IV 1 mg/kg, cassette, 0.033 h",189 ng/mL and 400 nM
same,concentration at 0.167 h,"male, KM, mouse, plasma, IV 1 mg/kg, cassette, 0.167 h",210 nM and 98.9 ng/mL
same,concentration at 0.5 h,[6],130 nM and 62.5 ng/mL
same,concentration at 1 h,[6],100 nM and 45.6 ng/mL
same,concentration at 3 h,[6],60 nM and 28.3 ng/mL
same,concentration at 5 h,[6],40 nM and 18.3 ng/mL
same,concentration at 8 h,[6],30 nM and 12.5 ng/mL
same,concentration at 24 h,[6],10 nM and 6.16 ng/mL
same,C0,[7],222 ng/mL
same,MRT last,[7],6.46 h
same,MRT inf,[7],9.9 h
same,concentration at 0.083 h,[8],16.4 ng/mL and 30 nM
same,concentration at 0.25 h,[8],50 nM and 25.1 ng/mL
same,concentration at 0.5 h,[8],80 nM and 37.7 ng/mL
same,concentration at 1 h,[8],100 nM and 49.3 ng/mL
same,concentration at 3 h,[8],100 nM and 49.4 ng/mL
same,concentration at 5 h,[8],80 nM and 40.1 ng/mL
same,concentration at 8 h,[8],80 nM and 36.7 ng/mL
same,concentration at 24 h,[8],50 nM and 22.9 ng/mL
same,MRT last,[9],7.92 h
same,MRT inf,[9],27.5 h
same,Vd/F,[9],104 L/kg
